This experiment addresses TrkA (tropomyosin receptor kinase A) (Homo sapiens, UniProt P04629). Briefly: TR-FRET. It counts as biochemical. A general note: In TR-FRET formats the signal depends on donor and acceptor labels being close together.

Results on one compound are retold here after paper PMC9252884 (Biomolecules & Therapeutics, 2022).

TrkA (tropomyosin receptor kinase A), sequence (P04629 441-796 limits assumed): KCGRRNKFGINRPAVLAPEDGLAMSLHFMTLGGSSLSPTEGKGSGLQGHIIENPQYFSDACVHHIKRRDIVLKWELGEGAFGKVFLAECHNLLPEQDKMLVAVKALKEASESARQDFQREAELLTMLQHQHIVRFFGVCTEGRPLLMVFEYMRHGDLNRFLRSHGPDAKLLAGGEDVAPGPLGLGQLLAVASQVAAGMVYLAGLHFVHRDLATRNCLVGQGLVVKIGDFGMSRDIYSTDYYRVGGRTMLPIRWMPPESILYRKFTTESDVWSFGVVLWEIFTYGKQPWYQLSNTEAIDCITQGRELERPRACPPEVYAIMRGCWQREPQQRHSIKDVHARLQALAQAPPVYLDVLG

In general, IC50 refers to the midpoint of a concentration-inhibition curve. Low values mean higher potency, high ones lower potency. `Nc1ncc(-c2cnn(C3CCNCC3)c2)cc1-c1nc2ccccc2o1` [KRC-108, 3-(benzo[d]oxazol-2-yl)-5-(1-(piperidin-4-yl)-1H-pyrazol-4-yl)pyridin-2-amine] registered a 50% inhibitory concentration (IC50) of 43.3 nM.
